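The compound was tested at five concentrations on cells cultured in 96-well plates, with a 48-hour exposure period. The concentration for 50% growth inhibition is given as GI50. Definition used: TGI = concentration required for complete inhibition of growth.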
Columns and labels:
Assay in all cases: NCI tumour cell line growth inhibition, 48 h
A549 NSCLC = system: A549 NSCLC
HOP-92 NSCLC = system: HOP-92 NSCLC
M14 melanoma = system: M14 melanoma
OVCAR-5 ovarian = system: OVCAR-5 ovarian
SF-295 CNS = system: SF-295 CNS
SK-MEL-2 melanoma = system: SK-MEL-2 melanoma
SK-MEL-28 melanoma = system: SK-MEL-28 melanoma
SN12C renal = system: SN12C renal
UACC-257 melanoma = system: UACC-257 melanoma
MCF7 breast = system: MCF7 breast

SMILES | TGI (A549 NSCLC) | TGI (HOP-92 NSCLC) | TGI (M14 melanoma) | TGI (OVCAR-5 ovarian) | TGI (SF-295 CNS) | TGI (SK-MEL-2 melanoma) | TGI (SK-MEL-28 melanoma) | TGI (SN12C renal) | TGI (UACC-257 melanoma) | TGI (MCF7 breast) | GI50 (A549 NSCLC) | GI50 (M14 melanoma) | GI50 (SF-295 CNS) | GI50 (SK-MEL-2 melanoma) | GI50 (SK-MEL-28 melanoma) | GI50 (SN12C renal) | GI50 (HOP-92 NSCLC) | GI50 (OVCAR-5 ovarian) | GI50 (UACC-257 melanoma) | GI50 (MCF7 breast)
Cc1cc(Br)ccc1N=NC1C(=O)ON=C1c1ccccc1 (stereo unspecified) | > 100 µM | > 100 µM | > 100 µM | > 100 µM | > 100 µM | > 100 µM | > 100 µM | > 100 µM | > 100 µM |  |  |  |  |  |  |  |  |  |  | 
C/C=C/C(C/C=C(\C)CO[Si](C)(C)C(C)(C)C)O[Si](C)(C)C(C)(C)C (stereo unspecified) | > 100 µM |  | > 100 µM | > 100 µM | > 100 µM | > 100 µM | > 100 µM | > 100 µM | > 100 µM | > 100 µM |  |  |  |  |  |  |  |  |  | 
CC(=O)Nc1ccc(/C=C/C(=O)c2sc(-n3nc(-c4ccccc4)cc3-c3ccccc3)nc2C)cc1 | > 100 µM |  | > 100 µM |  | > 100 µM | > 100 µM | > 100 µM | > 100 µM | > 100 µM |  | > 100 µM | > 100 µM | > 100 µM | > 100 µM | > 100 µM | > 100 µM |  |  |  | 
BrC(/C=N/Nc1nnc(-c2ccccc2)c(-c2ccccc2)n1)C(Br)c1ccccc1 (stereo unspecified) | > 100 µM | 64.5 µM | 51.8 µM | > 100 µM | > 100 µM | 73.2 µM | > 100 µM | > 100 µM | > 100 µM |  |  |  |  |  |  |  |  |  |  | 
O=c1ccn([C@@H]2C[C@H](CO)CS(=O)C2)c(=O)[nH]1 (stereo partly specified) | > 100 µM | > 100 µM | > 100 µM |  | > 100 µM | > 100 µM | > 100 µM | > 100 µM | > 100 µM |  |  |  |  |  |  |  |  |  |  | 
CC(=O)[O-].O=C([CH-]C(=O)c1ccccc1)c1ccccc1.O=C([CH-]C(=O)c1ccccc1)c1ccccc1.[Dy+3] | 51.2 µM | 43.9 µM | 36 µM | > 100 µM | 28.8 µM | 37.4 µM | 51.4 µM | 59.5 µM | 40.4 µM |  | 18 µM | 15.9 µM | 7.73 µM | 14.9 µM | 15.4 µM | 11.9 µM | 18.8 µM | 34.9 µM | 15.6 µM | 
N#CC1(C2CC(=O)N(c3ccccc3)C2=O)CCCCC1=O (stereo unspecified) | > 100 µM |  | > 100 µM | > 100 µM | > 100 µM |  | > 100 µM | > 100 µM |  |  |  |  |  |  |  |  |  |  |  | 
O=C(Nc1cc(Cl)ccc1Cl)c1cc2ccccc2oc1=O | > 100 µM |  | > 100 µM |  | > 100 µM | > 100 µM | > 100 µM | > 100 µM | > 100 µM |  |  |  |  |  |  |  |  |  |  | 
N#Cc1cccc(C2SCc3nc4ccccc4n32)c1 (stereo unspecified) | > 100 µM | > 100 µM |  | > 100 µM | > 100 µM | > 100 µM | > 100 µM | > 100 µM | > 100 µM |  |  |  |  |  |  |  |  |  |  | 
CC1(C)N=C(N)N=C(N)N1c1cccc(CC(=O)Nc2ccccc2)c1 | > 100 µM |  | > 100 µM | > 100 µM | > 100 µM | > 100 µM | 77 µM | > 100 µM | > 100 µM | > 100 µM | 3.54 µM | 40.2 µM | 30.6 µM | > 100 µM | 9.15 µM | 4.84 µM |  | > 100 µM | > 100 µM | 7.56 µM
CC1SC(c2ccc(OCc3ccccc3)cc2)N(NC(=O)C(O)(c2ccccc2)c2ccccc2)C1=O (stereo unspecified) | 20.8 µM | 4.74 µM |  | 16.1 µM | 4.53 µM | 18.8 µM | 16.3 µM | 13.8 µM | 21.3 µM | 22.4 µM | 4.68 µM |  | 1.78 µM | 4.36 µM | 4.44 µM | 3.95 µM | 1.14 µM | 3.81 µM | 7.39 µM | 4.37 µM
O=C(NC(=Nc1ccccc1)SCCSC(=Nc1ccccc1)NC(=O)c1ccccc1)c1ccccc1 | > 100 µM | 58.7 µM | > 100 µM | > 100 µM | > 100 µM | > 100 µM | > 100 µM | > 100 µM | > 100 µM |  |  |  |  |  |  |  |  |  |  | 
C=CN(C(=O)N1CCN(c2cc3c(cc2F)c(=O)c(C(=O)O)cn3C2CC2)CC1)c1nc(-c2ccc(C)cc2)cs1 | > 100 µM | 4.39 µM |  | > 100 µM | 7.11 µM |  | > 100 µM | > 100 µM | 7.44 µM | 11.5 µM | 3.17 µM |  | 2.59 µM |  | 4.49 µM | 3.46 µM | 1.13 µM | 4.14 µM | 2.81 µM | 2.88 µM
Cc1nc2ccccc2c(=O)n1/N=C(\N=Nc1ccc(Cl)cc1)c1ccc(N(C)C)cc1 | > 100 µM |  |  |  | > 100 µM |  | > 100 µM | > 100 µM |  |  |  |  |  |  |  |  |  |  |  | 
CC1(C)OC2OC(/C=C/[N+](=O)[O-])C3OC(C)(C)OC3C2O1 (stereo unspecified) | 42.6 µM | 19.6 µM | 27.3 µM | 38.1 µM | 36 µM | 32.6 µM | 32.9 µM | 31.1 µM | 20.7 µM |  |  |  |  |  |  |  |  |  |  | 
O=C1C(=C2C(=O)c3ccccc3[N+]2=O)N([O-])c2ccccc21 | > 100 µM |  | 43.7 µM | > 100 µM | > 100 µM |  | > 100 µM |  |  |  |  |  |  |  |  |  |  |  |  | 
C=CC(C)(C)[C@@]12CC3C(=O)N[C@@H](Cc4ccccc4)C(=O)N3[C@@H]1N(C(C)=O)c1ccccc12 (stereo partly specified) | > 100 µM | 91.2 µM | > 100 µM | > 100 µM | > 100 µM | > 100 µM | > 100 µM | > 100 µM | > 100 µM |  |  |  |  |  |  |  |  |  |  | 
Cc1c(Cl)ccc2[s+]snc12 | > 100 µM |  | 77.8 µM | > 100 µM | > 100 µM | 77.3 µM | > 100 µM | 57.3 µM | 89.7 µM |  |  |  |  |  |  |  |  |  |  | 
CC(=O)NNc1nc(C)c(C(=O)NNC(=O)C(=O)Nc2ccc(C)cc2[N+](=O)[O-])s1 | > 100 µM | > 100 µM | > 100 µM | > 100 µM | > 100 µM | > 100 µM | > 100 µM | > 100 µM | > 100 µM |  |  |  |  |  |  |  |  |  |  | 
COc1cc(CC2c3cc(OC)c(OC)cc3CCN2C)c(C(=O)O)cc1OC (stereo unspecified) | > 100 µM | > 100 µM | > 100 µM | > 100 µM | > 100 µM | > 100 µM | > 100 µM | > 100 µM | > 100 µM |  |  |  |  |  |  |  |  |  |  | 

Reference: PubChem BioAssay (NCI)
